Experimental data published in US20260240851A1, “Treatment of Parkinson's Disease in a Patient Using a Glucocerebrosidase Activator” (BIAL - R&D Investments, S.A., priority 2023, published 2026).

Columns and labels:
[1] = test system: GluCer, GluSph and LacCer in plasma, PBMCs and CSF; experiment: LTI-291-002: glycolipid biomarkers; assay type: in vivo, human; conditions: healthy subjects
Method: This study was a phase 1, randomized, double-blind, placebo-controlled, multiple ascending dose study of Compound A in 4 cohorts of middle-aged to elderly healthy participants (aged 52 to 75 years). […] A total of 39 healthy subjects were enrolled in 4 sequential cohorts. Subjects in each cohort received once-daily oral doses of 3 mg (n=7), 10 mg (n=8), 30 mg (n=8), or 60 mg (n=8) Compound A or placebo (n=8) for 14 days. Pharmacokinetic parameters were determined for each dose at Day 1, Day 7, and Day 14. Cerebrospinal fluid samples for Compound A concentrations were measured before the first dose and 4 hours after the last dose for each dose level. GluCer, glucosyl sphingosine (GluSph), and lactosyl-ceramide (LacCer) were measured in plasma, PBMCs, and CSF as biomarkers of pharmacological effects. Pharmacodynamic measurements consisted of battery of CNS (NeuroCart®) assessments including Saccadic Eye Movements, Smooth Pursuit Eye Movements, Adaptive Tracking, Body Sway, Visual Verbal Learning Test, and pharmaco-EEG.

GCase = molecular target: T1, GCase (Homo sapiens, UniProt P04062); experiment: In vitro GCase brain homogenate activity assay superimposed on estimated human brain Cb,min,ss; assay type: biochemical; conditions: for minimum GCase activity in GBA-PD patients: brain Cmin at steady state (Cb,min,ss), estimated
T1 construct: brain homogenate (5 μg/well) as enzyme source; from tissue; host or cells: human brain homogenate
T1 sequence (P04062 40-536): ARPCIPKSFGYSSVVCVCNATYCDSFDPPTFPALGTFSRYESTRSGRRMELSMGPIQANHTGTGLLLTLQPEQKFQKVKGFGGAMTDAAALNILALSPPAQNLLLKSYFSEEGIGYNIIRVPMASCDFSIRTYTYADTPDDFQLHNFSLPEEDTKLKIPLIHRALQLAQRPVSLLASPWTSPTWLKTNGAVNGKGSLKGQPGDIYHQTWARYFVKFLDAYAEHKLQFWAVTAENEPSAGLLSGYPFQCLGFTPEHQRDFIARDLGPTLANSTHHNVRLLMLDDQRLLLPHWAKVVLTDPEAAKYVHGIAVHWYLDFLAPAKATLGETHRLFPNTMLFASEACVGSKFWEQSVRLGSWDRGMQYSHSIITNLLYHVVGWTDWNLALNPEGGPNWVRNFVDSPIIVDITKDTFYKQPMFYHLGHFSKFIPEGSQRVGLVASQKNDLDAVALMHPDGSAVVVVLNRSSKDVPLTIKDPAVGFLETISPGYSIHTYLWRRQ
Text: The in vitro measurement of GCase activity in human brain homogenates was used to correlate the exposure and GCase activity and to estimate the increase in GCase activity in the brain of GBA-PD patients at Cmin at steady state (Cb,min,ss) across different dose levels. The relationship between concentration observed in brain and CSF in rat was used to obtain the brain concentrations of Compound A in humans, assuming the same relationship conserved among mammalian species. The range of human estimated Cb,min,ss were superimposed to the corresponding concentration from in vitro study with human brain homogenates to obtain the GCase activation by Compound A.
The activity of Compound A in the GCase assay was determined using 4-MUG (1 mM) as substrate and brain homogenate (5 μg/well) as enzyme source.
A 500 μl aliquot of a 1.0 mg/ml solution of phosphatidylserine (PS, Sigma P7769) in chloroform was evaporated under a stream of nitrogen for 1 hour. The lipid film was dissolved with 4 minutes of vigorous vortexing in 41 ml of 176 mM K2HPO4/50 mM citric acid pH 4.7 containing 7.7 μl of triton X-100, resulting in a mixed micellar preparation with a composition of 0.32 mM triton and 4.6 mol % PS.
4-methylumbelliferyl-beta-D-glucopyranoside (4-MUG, ACROS-337025000) was dissolved in the micellar solution to a final concentration of 2 mM for use as the reaction substrate. The micellar/homogenate solution was prepared by adding 3.2 ml Triton X-100/phosphotidylserine mixed micelles containing 400 μg/mL brain homogenate. A 1.6 mL portion of this mixture received 32 μl conduritol B epoxide (CBE, 100 mM stock in DMSO) for final concentration of 2 mM CBE. The remaining 1.6 mL portion received 32 μl DMSO as solvent control. Compound A was diluted with DMSO from a 10 mM stock to the desired assay concentrations, and 0.45 μl of compound in DMSO was added to 75 μl of micellar/homogenate solution (+/−CBE).
After a 30 minute pre-incubation at room temperature, the reaction was initiated by combining 25 μl of substrate solution with 25 μl of compound/GCase/homogenate mixture. The reaction proceeded for 30 minutes at room temperature for Rat, Cyno and Dog brain homogenates, 60 minutes for Mouse and Human brain homogenate. The reaction was stopped by adding 150 μl of 1M glycine, pH 12.5. The endpoint fluorescence intensity of the reaction was measured at excitation 365 nm, emission 440 nm on a SpectraMax i3 instrument (Molecular Devices). Compound activity was expressed relative to a DMSO control. […]
An API4000 mass spectrometer equipped with a turbo ion spray source was used for detection in positive ion mode. Quantification was based on multiple reaction monitoring (MRM) of the transitions of m/z 359.2-174.2 for LTI-291 and m/z 365.3-180.2 for its internal standard. […]

## CCCCCO[C@H]1CC[C@H](NC(=O)c2cnn3c(C)cc(C)nc23)CC1 [Compound A, 5,7-dimethyl-N-((1S*,4S)-4-(pentyloxy)cyclohexyl)pyrazolo[1,5-a]pyrimidine-3-carboxamide]
[1]; 14 days of dosing
  consistent pharmacodynamic effect on glycolipids: not observed
[1]; 14 days
  GluCer and LacCer variables in CSF: sporadic, statistically significant decreases
  GluCer and LacCer variables in plasma and PBMCs: Sporadic, statistically significant increases
GCase; 10 mg
  minimum GCase activity in GBA-PD patients: 69.7-123%
GCase; 10 mg, dosing interval 24 h
  minimum GCase activity relative to effective GCase activity: approximately 2 times
GCase; 30 mg
  minimum GCase activity in GBA-PD patients: 163-306%
GCase; 60 mg
  minimum GCase activity in GBA-PD patients: 255-376%
